The results in this text go back to patent US20250122174A1 (Shenzhen Yuanli Shenwan Innovative Medicine Co., Ltd., priority 2022, published 2025).

Counter-ions that a name gives are not always drawn. Where only a bound is given, the exact number is not on record here.

The assay deals with HPK1 (Homo sapiens (Human), UniProt Q92918). In words: HPK1 Inhibition Assay (ADP-Glo kinase assay). The format is biochemical. Particulars: ATP 10 μM. On the procedure: A stock solution of 10 mM test compound was prepared in DMSO. The compound was prepared by 5-fold and 10-point serial dilutions with HPK1 kinase assay buffer. The HPK1 kinase assay buffer contained 40 mM Tris, pH 7.5; 20 mM MgCl2, 0.1 mg/ml BSA, and 50 μM DTT. 7.5 ng/μl of Active HPK1 (Promega, V4098) and 0.1 μg/ml MBP substrate protein were added to the reaction system. The final concentration of ATP in the HPK1 kinase reaction system was 10 μM. Serial diluted compounds were transferred to the reaction system and incubated at room temperature for 1 hr. 5 μL of ADP-Glo™ Reagent (Promega, V9101) was added and incubated for 40 min to stop the kinase reaction and deplete the unconsumed ATP. […] The luminescence was measured with a plate-reading luminometer.
HPK1, sequence (Q92918 1-346 limits assumed): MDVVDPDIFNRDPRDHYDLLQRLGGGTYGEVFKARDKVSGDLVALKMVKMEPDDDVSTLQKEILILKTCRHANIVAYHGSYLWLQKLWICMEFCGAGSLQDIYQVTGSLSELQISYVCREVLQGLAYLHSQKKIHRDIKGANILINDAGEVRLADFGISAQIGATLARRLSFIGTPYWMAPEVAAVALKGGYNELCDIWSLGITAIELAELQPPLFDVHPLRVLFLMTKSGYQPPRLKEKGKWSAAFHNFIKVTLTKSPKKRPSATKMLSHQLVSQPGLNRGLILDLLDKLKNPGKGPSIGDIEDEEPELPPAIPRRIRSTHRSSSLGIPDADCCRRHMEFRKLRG
Background: ADP-Glo turns the ADP formed in a reaction into a luminescent signal.
`COCc1nc2c(N3CC[C@H](N)C3)c(NC(=O)c3ccnc(-c4c(F)cccc4OC)c3F)ccc2n1C` [Example 15, N-{4-[(3S)-3-aminopyrrolidin-1-yl]-2-(methoxymethyl)-1-methyl-1,3-benzodiazol-5-yl}-3-fluoro-2-(2-fluoro-6-methoxyphenyl) pyridine-4-carboxamide] showed an IC50 of less than 100 nM.
With `Cn1c(C(F)(F)F)nc2c(N3CC[C@H](N)C3)c(NC(=O)c3ccnn(-c4c(F)cccc4F)c3=O)ccc21` [Example 39, (S)—N-(4-(3-aminopyrrolidin-1-yl)-1-methyl-2-(trifluoromethyl)-1H-benzo[d]imidazol-5-yl)-2-(2,6-difluorophenyl)-3-oxo-2,3-dihydropyridazine-4-carboxamide] the figure was 100 to 1000 nM; with `Cn1c(C(F)(F)F)nc2c(N3CCC[C@H]3CN)c(NC(=O)c3ccnn(-c4c(F)cccc4F)c3=O)ccc21` [Example 40, (S)-N-(4-(2-(aminomethyl)pyrrolidin-1-yl)-1-methyl-2-(trifluoromethyl)-1H-benzo[d]imidazol-5-yl)-2-(2,6-difluorophenyl)-3-oxo-2,3-dihydropyridazine-4-carboxamide], less than 100 nM.
With `COc1cccc(F)c1-n1nccc(C(=O)Nc2ccc3c(nc(C(F)(F)F)n3C)c2N2CC[C@H](N)C2)c1=O` [Example 41, (S)-N-(4-(3-aminopyrrolidin-1-yl)-1-methyl-2-(trifluoromethyl)-1H-benzo[d]imidazol-5-yl)-2-(2-fluoro-6-methoxyphenyl)-3-oxo-2,3-dihydropyridazine-4-carboxamide] the figure was less than 100 nM; with `Cn1c(-c2ccncc2F)nc2c(N3CC[C@H](N)C3)c(NC(=O)c3ccnn(-c4c(F)cccc4F)c3=O)ccc21` [Example 42, N-{4-[(35)-3-aminopyrrolidin-1-yl]-2-(3-fluoropyridin-4-yl)-1-methyl-1,3-benzodiazol-5-yl}-2-(2,6-difluorophenyl)-3-oxopyridazine-4-carboxamide], less than 100 nM; with `COCc1nc2c(N3CC[C@H](N)C3)c(NC(=O)c3ccnn(-c4c(F)cccc4F)c3=O)ccc2n1C` [Example 44, (S)—N-(4-(3-aminopyrrolidin-1-yl)-2-(methoxymethyl)-1-methyl-1H-benzo[d]imidazol-5-yl)-2-(2,6-difluorophenyl)-3-oxo-2,3-dihydropyridazine-4-carboxamide], less than 100 nM.
For `COCCn1c(C)nc2c(N3CCC[C@H]3CN)c(NC(=O)c3ccnn(-c4c(F)cccc4F)c3=O)ccc21` [Example 45], the 50% inhibitory concentration (IC50) was less than 100 nM.
Next, `CC(C)c1nc2c(N3CC[C@H](N)C3)c(NC(=O)c3ccnn(-c4c(F)cccc4F)c3=O)ccc2n1C` [Example 46, (S)—N-(4-(3-aminopyrrolidin-1-yl)-2-isopropyl-1-methyl-1H-benzo[d]imidazol-5-yl)-2-(2,6-difluorophenyl)-3-oxo-2,3-dihydropyridazine-4-carboxamide]: less than 100 nM.
For the compound `Cc1nc2c(N3CC[C@H](N)C3)c(NC(=O)c3ccnn(-c4c(F)cccc4F)c3=O)ccc2n1C1CCOCC1` [Example 47, (S)—N-(4-(3-aminopyrrolidin-1-yl)-2-methyl-1-(tetrahydro-2H-pyran-4-yl)-1H-benzo[d]imidazol-5-yl)-2-(2,6-difluorophenyl)-3-oxo-2,3-dihydropyridazine-4-carboxamide trifluoroacetate], the IC50 was in the range of 100 to 1000 nM.
Compound `Cc1nc2c(N3CC[C@H](N)C3)c(NC(=O)c3ccnn(-c4c(F)cccc4F)c3=O)ccc2n1C1CC1` [Example 48, N-{4-[(35)-3-aminopyrrolidin-1-yl]-1-cyclopropyl-2-methyl-1,3-benzodiazol-5-yl}-2-(2,6-difluorophenyl)-3-oxopyridazine-4-carboxamide] came in with a concentration for half-maximal inhibition (IC50) of 100 to 1000 nM.
With `Cc1nc2c(N3CC[C@H](N)C3)c(NC(=O)c3ccnn(-c4c(Cl)cccc4Cl)c3=O)ccc2n1C` [Example 49, N-{4-[(35)-3-aminopyrrolidin-1-yl]-1,2-dimethyl-1,3-benzodiazol-5-yl}-2-(2,6-dichlorophenyl)-3-oxopyridazine-4-carboxamide hydrochloride] the figure was less than 100 nM.

For orientation: IC50 means the concentration that gives 50% inhibition. Low values mean inhibition by little substance, high ones a need for much substance.
